# Tests used:
# Type in all cases: physicochemical
# [1] = BET specific surface area by nitrogen adsorption (TRISTAR 2000); conditions: for BET specific surface area, effect of slurry composition: external T=18 °C, FIG. 10
# Excerpt: Through these tests, it was established that drug substance Brunnauer-Emmett-Teller specific surface area (“BET specific surface area” or “BET SSA”) in a particular range is desirable to obtain desirable dissolution properties in the final product. BET specific surface area can be measured by physical adsorption methods known to one of skill in the art. All measurements described herein were made on a TRISTAR 2000 instrument (MICROMERITICS, Norcross, Ga.) using the nitrogen adsorption method, as described in Webb, P. A., “Surface Area, Porosity, and Related Physical Characteristics,” in PHARMACEUTICAL DOSAGE FORMS: TABLETS, VOLUME 3: MANUFACTURE AND PROCESS CONTROL 277-302 (eds. L. Augsburger & S. W. Hoag Informa Healthcare USA Inc. 2008). In the nitrogen absorption method, a tube containing a solid sample is preconditioned at a certain temperature for a predetermined amount of time to remove gases/vapors adsorbed on the surface of the solids. For the examples described herein, the equilibration temperature was 30° C., and the time was 16 hours. The tube is then placed into the instrument and evacuated. After evacuation, the tube is submerged into liquid nitrogen, and a known amount of nitrogen (N2) gas is introduced in the tube by means of a control valve. The N2 gas expands and fills the free volume of the tube. The pressure P of the tube will become equal to nRT/V, where n is the number of N2 gas molecules introduced in the sample tube, R is the universal gas constant, T is the absolute temperature and V is the tube free volume. By repeating the evacuation and filling procedure for different amounts of N2 gas, a BET isotherm curve can be obtained, and the BET specific surface area of the solids can be calculated from the slope of the BET curve, as described in Webb (supra).
# [2] = Dissolution testing of drug product, USP Dissolution Apparatus 2 (paddle); conditions: 45 minutes; drug substance BET SSA 12.06 m^2/g
# Experimental: The resulting drug products were subjected to dissolution testing in a USP Dissolution Apparatus 2 (DISTEK, New Brunswick, N.J.), equipped with a paddle (see United States Pharmacopeia (USP) General Chapter 711 Dissolution). 50 millimoles of phosphate buffer (pH=6.8) containing 0.1% sodium dodecyl sulphate was used. Testing was performed at physiological temperatures (37.0° C.±0.5° C.).
# [3] = Bulk and tap density of drug substance powder (morphology study)
# Experimental: A solution of the product of Example 1, Procedure A2 (608.5 g) dissolved in MTBE (2450 mL) was prepared. The solution was added into the mixing chamber at a rate of 840 mL/min and combined with n-heptane flowing at a rate of 3400 mL/min to form a slurry. The precipitation temperature was controlled at 20° C. After precipitation, one sample was filtered at 20° C. and a second sample was heated to 50° C. at a rate of 1° C./min. The drug substance particle morphology was examined by Scanning Electron Microscopy (SEM); images of the particles are provided as FIGS. 7A and 7B, respectively.
# The difference in morphology between the two […] samples is readily apparent. The sample filtered at 20° C., shown in FIG. 7A, retained the particle morphology obtained during precipitation. The sample heated to 50° C., shown in FIG. 7B, consists of particles that are fused together; some particles look melted. The particles having different morphologies also had differences in drug substance physical attributes.
# [4] = aging process, sample: After 1% of batch distilled
# [5] = aging process, sample: After 2% of batch distilled
# [6] = aging process, sample: After 4% of batch distilled
# [7] = aging process, sample: After 6 hours at aging temperature
# [8] = aging process, sample: After distillation
# [9] = aging process, sample: After precipitation
# [10] = aging process, sample: Final dry cake
# [11] = Example 8, equilibration temperature 20 °C (filtered at 20 °C)
# [12] = Example 8, equilibration temperature 50 °C (heated to 50 °C at 1 °C/min)
smiles,measurement,setting,value
CC(C)(C)NC(=O)N[C@H](C(=O)N1C[C@H]2[C@@H]([C@H]1C(=O)NC(CC1CCC1)C(=O)C(N)=O)C2(C)C)C(C)(C)C (stereo partly shown) [Batch 1],BET SSA,[1]; [4],9.18 m^2/g
same,BET SSA,[1]; [5],9.13 m^2/g
same,BET SSA,[1]; [6],9.05 m^2/g
same,BET SSA,[1]; [7],9.60 m^2/g
same,BET SSA,[1]; [8],8.88 m^2/g
same,BET SSA,[1]; [9],56.70 m^2/g
same,BET SSA,[1]; [10],9.30 m^2/g
CC(C)(C)NC(=O)N[C@H](C(=O)N1C[C@H]2[C@@H]([C@H]1C(=O)NC(CC1CCC1)C(=O)C(N)=O)C2(C)C)C(C)(C)C (stereo partly shown) [Batch 2],BET SSA,[1]; [4],7.14 m^2/g
same,BET SSA,[1]; [5],6.90 m^2/g
same,BET SSA,[1]; [6],6.88 m^2/g
same,BET SSA,[1]; [7],7.36 m^2/g
same,BET SSA,[1]; [8],6.92 m^2/g
same,BET SSA,[1]; [9],46.94 m^2/g
same,BET SSA,[1]; [10],7.61 m^2/g
"CC(C)(C)NC(=O)N[C@H](C(=O)N1C[C@H]2[C@@H]([C@H]1C(=O)NC(CC1CCC1)C(=O)C(N)=O)C2(C)C)C(C)(C)C (stereo partly drawn) [boceprevir, (1R,5S)—N-[3-amino-1-(cyclobutylmethyl)-2,3-dioxopropyl]-3-[2(S)-[[[(1,1-dimethylethyl)amino]carbonyl]amino]-3,3-dimethyl-1-oxobutyl]-6,6-dimethyl-3-azabicyclo[3.1.0]hexan-2(S)-carboxamide]",BET specific surface area,"[1]; Example 2, laboratory scale tee mixer, slurry filtered immediately after precipitation and dried",about 94 m^2/g
same,BET specific surface area,"[1]; Example 6, distillation profile of Table 3",2.93 m^2/g
same,BET specific surface area,"[1]; Example 6, distillation profile of Table 11 (25-27.0 °C)",2.01 m^2/g
same,BET specific surface area,"[1]; Example 7, drug substance used for the high BET SSA study",12.06 m^2/g
same,"BET specific surface area, powder of FIG. 7A (20 °C) compared to powder of FIG. 7B (50 °C)",[1]; Example 8,10 times
same,BET SSA,[1]; [11],19.11 m^2/g
same,BET SSA,[1]; [12],1.82 m^2/g
same,final BET specific surface area as a function of equilibration temperature,"[1]; Example 9, slurries from -15 °C held at external temperatures of 5 °C and 0 °C, FIG. 8",lower for the higher equilibration temperature
same,changes in BET specific surface area on holding at aging temperature,"[1]; Example 10, aging temperature 14 °C, after 3 hours of holding, FIG. 6",very small changes
same,"BET specific surface area, effect of slurry composition","[1]; Example 12, first slurry (low solvent/high anti-solvent)",higher drug substance BET specific surface area
same,"BET specific surface area, effect of slurry composition","[1]; Example 12, second slurry (high solvent/low anti-solvent)",lower drug substance BET specific surface area
same,% Dissolved,[2],did not consistently meet or exceed a 75% dissolution criterion
same,"bulk and tap density, powder of FIG. 7A (20 °C) compared to powder of FIG. 7B (50 °C)",[3]; Example 8,about 2 times
same,Bulk Density,[3]; [11],0.3087 g/mL
same,Tap Density,[3]; [11],0.4062 g/mL
same,Bulk Density,[3]; [12],0.1265 g/mL
same,Tap Density,[3]; [12],0.1898 g/mL

# — US20140044759A1, “DRUG SUBSTANCES, PHARMACEUTICAL COMPOSITIONS AND METHODS FOR PREPARING THE SAME” (priority 2011, published 2014)
